The source of these data is ChEMBL document CHEMBL4308902, “Synthetic approaches to isocarbacyclin and analogues as potential neuroprotective agents against ischemic stroke” (Bioorg Med Chem, 2019).

The test system of series [1] is Cortical neurone. As to the kind of experiment: Neuroprotection in mouse embryonic cortical neurons assessed as reduction in glucose deprivation-induced cell death. Type of series: functional, cell-based.
For series [2], the system named is Cortical neurone. As to the kind of experiment: Cytotoxicity against mouse embryonic cortical neurons assessed as reduction in cell viability. The class given is cell-based.
Series [3] relates to Cortical neurone. As to the kind of experiment: Neuroprotection in mouse embryonic cortical neurons assessed as reduction in oxygen and glucose deprivation-induced cell death. The class given is functional, cell-based.

Active and inactive are the calls of the source. No cut-off for these calls is given here.

On to `CCCCCCCCCC/C=C/[C@@H]1[C@H]2CC(CCCCC(=O)O)=C[C@H]2C[C@H]1O`, for which the result in series [1] and in series [3] was inactive. Besides, in series [2], the Activity result is given as “Toxic”.
`C=C[C@@H]1[C@H]2CC(CCCCC(=O)O)=C[C@H]2C[C@H]1O`: the outcome in series [1] and in series [3] was inactive. The Activity entry in series [2] was “Toxic”.
As for `CCCCCC/C=C/[C@@H]1[C@H]2CC(CCCCC(=O)O)=C[C@H]2C[C@H]1O`, the result in series [1] and in series [3] was inactive. For the same molecule, the Activity result in series [2] was “Toxic”.
For the molecule `O=C(O)CCCCC1=C[C@H]2C[C@@H](O)[C@H](/C=C/Cc3ccccc3)[C@H]2C1`, the outcome in series [1] and in series [3] was inactive. For the same molecule, in series [2], the Activity entry is on record as “Toxic”.
Turning to `CCCCC[C@H](O)/C=C/[C@@H]1[C@H]2CC(CCCCC(=O)O)=C[C@H]2C[C@H]1O`, the outcome in series [1] and in series [3] was inactive. Also, the Activity result in series [2] is given as “Toxic”.
